Results as given in patent US6063776A, “Sitostanol formulation with emulsifier to reduce cholesterol absorption and method for preparing and use of same” (Washington University, priority 1999, dated 2000).
Read-outs that look alike come from different tables or passages of the source.

Columns and labels:
[1] = Solubility in artificial bile of sonicated, lyophilized sitostanol mixtures (Example 6); assay type: physicochemical; conditions: compared with lecithin and lysolecithin / SSL
Experimental: Solubility in artificial bile was determined by adding 8 mM sodium taurocholate 5 mM PC 0.15 M NaCl 15 mM sodium phosphate pH 7.4 (artificial bile), rotating for 30 min. at 37° and centrifuging at 17,000×g for 1 min. The pellet was washed once and the combined sups and pellet were counted separately.

[2] = Solubility of sitostanol mixtures dried from chloroform in artificial bile (Example 1); assay type: physicochemical; conditions: artificial bile (8 mM sodium taurocholate, 5 mM soy lecithin, pH 7.4), 37° C, 30 min; mixture dried from chloroform
Experimental: An aliquot, containing 1.2 μMol of sitostanol, was transferred to an evacuation tube and the solvent was removed under reduced pressure (<50 mtorr). The experiment was initiated by adding 0.5 mL of artificial bile (8 mM sodium taurocholate containing 5 mM soy lecithin and 0.15 mM NaCl, pH 7.4) followed by rotation at 8 rev/min for 30 min at 37° C. The tube was then centrifuged for 1 minute at 17,000×g to precipitate any solid material, the supernatant was removed and added to scintillation fluid for measurement of radioactivity, and the percent of radioactivity in the artificial bile supernatant was calculated.

[3] = Solubility in artificial bile with variable amounts of lecithin, repeated extraction (Example 3); assay type: physicochemical; conditions: tenfold excess of lecithin
Experimental: Sitostanol, tracer amount of [^3 H]sitostanol, and other compounds that are found in the gut or that are commonly used as food additives were mixed together in chloroform solution at a fixed mole ratio. An aliquot, containing 1.2 μMol of sitostanol, was transferred to an evacuation tube and the solvent was removed under reduced pressure (<50 mtorr). The experiment was initiated by adding 0.5 mL of artificial bile (8 mM sodium taurocholate containing 5 mM soy lecithin and […], pH 7.4) followed by rotation at 8 rev/min for 30 min at 37° C. The tube was then centrifuged for 1 minute at 17,000×g to precipitate any solid material, the supernatant was removed and added to scintillation fluid for measurement of radioactivity, and the percent of radioactivity in the artificial bile supernatant was calculated. Table I below summarizes the solubility of sitostanol mixtures in the presence of artificial bile salt.
The effectiveness of variable amounts of lecithin to solubilize sitostanol was studied as in Example #1, except that after rotation at 37° for 30 min residual sedimenting sitostanol was re-extracted twice by vortexing with 0.5 ml additional artificial bile and recentrifuging. The following results were obtained:
When [^3 H]phosphatidylcholine was added as a tracer instead of [^3 H]sitostanol, the amount of lecithin solubilized was 93.3%. […]

[4] = system: serum cholesterol; conditions: cited from earlier work
[5] = system: hypocholesterolemic activity; conditions: rat, in vivo; cited from earlier work
[6] = in vivo; cited from earlier work
[7] = system: cholesterol absorption; conditions: cited from earlier work

For `CCCCCCCCCCCCCCCCCC(=O)OC(C)C(=O)OC(C)C(=O)[O-].[Na+]` (centres unmarked) [SSL, Sodium stearoyl-2-lactylate], the “effectiveness in solubilizing sitostanol” value [1] was “as effective as lecithin and lysolecithin”.

In the case of `CC[C@H](CC[C@@H](C)[C@H]1CC[C@H]2[C@@H]3CC[C@H]4C[C@@H](O)CC[C@]4(C)[C@H]3CC[C@]12C)C(C)C` [Sitostanol, sitostanol], the “Soluble Sterol” value [2] is listed as 2.3%, the sitostanol remaining insoluble [3] is listed as 32% and the “reduction of serum cholesterol” value ([4]; 1.5 g/day, severe hypercholesterolemia) is listed as 15%. For the same compound, the “effect in moderate hypercholesterolemia” value ([4]; 3 g/day) was “no effect”, the “potency relative to other phytosterols” value [5] was “more potent than other phytosterols” and the absorption [6] was “non-absorbable”.

In the case of `CC[C@H](CC[C@@H](C)[C@H]1CC[C@H]2[C@@H]3CC=C4C[C@@H](O)CC[C@]4(C)[C@H]3CC[C@]12C)C(C)C` [sitosterol], the “decrease of serum cholesterol levels” value ([4]; 3-9 g/day powdered sitosterol) is listed as 12% and the “reduction of serum cholesterol” value ([4]; 5-18 g sitosterol/day) is listed as 16-20%.

For neomycin, the “effect on cholesterol absorption” value ([7]; given chronically (cholestyramine) or orally (neomycin)) is listed as “reduces cholesterol absorption effectively”.

In the case of sitostanol ester, the “less effective at reducing cholesterol absorption” value ([7]; ester dissolved in dietary fat compared to the unesterified sterol, humans) is listed as 21%.
